target: α4β1 integrin (Homo sapiens (Human), UniProt P05556+P13612); assay: Integrin Adhesion Assay: Protocol 5 (VCAM-coated plate, RPMI-8866 cells with stable LOF mutation of the ITGB7 gene); assay type: cell-based; conditions: Protocol 5; RPMI-8866 cells with LOF mutation of ITGB7, VCAM; read-out: Mean IC50 α4β1 KO
Method: (§1) Integrin Adhesion Assay Using Genetically Modified Cells Generating Stable Cell Lines with ITGB1 or ITGB7 Knockout (Protocol 4 and Protocol 5)
(§2) To obtain subclones of the RPMI-8866 cell line (Sigma-Aldrich, St. Louis, MO) that were individually deficient in either integrin β1 or integrin β 7, CRISPR/Cas9 technology was employed (PMID: 30108345). Specifically, a Neon™ Transfection System System 10 μL Kit and the Neon™ Transfection device (both from ThermoFisher Scientific) were used.
(§3) The protocol was performed following the manufacturer instructions, described in https://www.thermofisher.com/document-connect/document-connect.html?url=https % 3A%2F%2F assets.thermofisher.com%2FTFS-Assets%2FLSG%2Fmanuals%2FMAN0017066_TrueCut Cas9_Protein_v2_UG.pdf, which is incorporated by reference herein in its entirety.
(§4) RPMI-8866 cells were transferred to a flask the day before transfection, at a confluence of 5×10^5 cells/mL. The cells were washed with PBS and resuspended in buffer R (Neon™ Transfection System, Invitrogen) to 2×10^5 cells/10 uL for each reaction. The TrueCut™ HiFi Cas9 Protein (1250 ng per reaction) was mixed with TrueGuide™ sgRNA (7.5 pmoles each/pool of 3 sequences, table 1) (ThermoFisher Scientific). This mix was combined with the RPMI-8866 cells and electroporated on the Neon system at 1700V/20 ms/1 pulse. Transfected cells were allowed to recover in 500 μL pre-warmed cRMPI media (RPMI-1640 media with 10% FBS, 100 U/ml Penicillin-Streptomycin) at 37° C., 5% CO2 for 24 hours. At that time, an extra 500 μL of pre-warmed cRMPI media was added, and cells were incubated for another 24 hours.
(§5) For flow cytometry analysis, 100 μL of the transfected cells were collected and stained with anti-itga4 (Clone: 9F10, PE, BD Pharmingen™), anti-itgb 1 (Clone: (TS2/16), Super Bright 436, eBioscience), anti-itgb7 (Clone: FIB504, Brilliant Violet 650, BD Pharmingen™) and viability dye (LIVE/DEAD™ Fixable Green Dead Cell Stain, Invitrogen™). An Attune NxT Flow Cytometer was used to analyze the CRISPR-transfected cells. The flow cytometry results were analyzed using FlowJo™ v10.8.1 Software (BD Life Sciences). Fluorescence minus one (FMO) controls were used to select appropriate gates for data analysis.
(§6) To generate an individual clones of cells deficient in either ITGB7 or ITGB1 by limiting dilution assay, the transfected cells were resuspended at 5 cells/mL and seeded in 384 well plates. Outgrowth of clones was monitored using a microscope, and 24 clones were transferred for expansion. Expression of either integrin was verified by flow cytometry in each of the clones. One clone of each integrin b7 or the integrin b1 knockout was chosen, expanded and aliquots were frozen in vapor phase liquid nitrogen.
Integrin Adhesion Assay: Protocol 5
VCAM (R&D Systems, 0.1 ug) was diluted in 50 μL PBS, added to each well of an opaque ELISA plate (Thermo), and incubated overnight at 4° C. Coated plates were washed once with PBS and then blocked with 200 μL of assay buffer (10 mM HEPES, 150 mM NaCl, 1 mM MnCl2, 0.1 mM CaCl2), 1% BSA) for 1 hour at 37° C. and 5% CO2. After incubation, buffer was aspirated from the plates and 50 μL of fresh assay buffer was added. Compounds were added by compounds dispenser (Tecan) and DMSO concentration was normalized to 1% across each plate. 50 μL of RPMI-8866 cells with a stable LOF mutation of the ITGB7 gene (2×10^6 per mL) were added to each well and the plates were incubated for 1 hour at 37° C. and 5% CO2. After incubation, plates were allowed to cool to RT for 10 minutes before being washed four times in assay buffer by an automated plate washer (BioTek). After washing, 100 μL of a 1:1 mixture of assay buffer and CellTiter GLO 2.0 reagent (Promega) were added to each well. Plates were mixed for 2 minutes at 1000 rpm and then allowed to incubate an additional 10 minutes before reading out luminescence on a Tecan Spark plate reader. […]

Sequence of α4β1 integrin (P13612 34-1032): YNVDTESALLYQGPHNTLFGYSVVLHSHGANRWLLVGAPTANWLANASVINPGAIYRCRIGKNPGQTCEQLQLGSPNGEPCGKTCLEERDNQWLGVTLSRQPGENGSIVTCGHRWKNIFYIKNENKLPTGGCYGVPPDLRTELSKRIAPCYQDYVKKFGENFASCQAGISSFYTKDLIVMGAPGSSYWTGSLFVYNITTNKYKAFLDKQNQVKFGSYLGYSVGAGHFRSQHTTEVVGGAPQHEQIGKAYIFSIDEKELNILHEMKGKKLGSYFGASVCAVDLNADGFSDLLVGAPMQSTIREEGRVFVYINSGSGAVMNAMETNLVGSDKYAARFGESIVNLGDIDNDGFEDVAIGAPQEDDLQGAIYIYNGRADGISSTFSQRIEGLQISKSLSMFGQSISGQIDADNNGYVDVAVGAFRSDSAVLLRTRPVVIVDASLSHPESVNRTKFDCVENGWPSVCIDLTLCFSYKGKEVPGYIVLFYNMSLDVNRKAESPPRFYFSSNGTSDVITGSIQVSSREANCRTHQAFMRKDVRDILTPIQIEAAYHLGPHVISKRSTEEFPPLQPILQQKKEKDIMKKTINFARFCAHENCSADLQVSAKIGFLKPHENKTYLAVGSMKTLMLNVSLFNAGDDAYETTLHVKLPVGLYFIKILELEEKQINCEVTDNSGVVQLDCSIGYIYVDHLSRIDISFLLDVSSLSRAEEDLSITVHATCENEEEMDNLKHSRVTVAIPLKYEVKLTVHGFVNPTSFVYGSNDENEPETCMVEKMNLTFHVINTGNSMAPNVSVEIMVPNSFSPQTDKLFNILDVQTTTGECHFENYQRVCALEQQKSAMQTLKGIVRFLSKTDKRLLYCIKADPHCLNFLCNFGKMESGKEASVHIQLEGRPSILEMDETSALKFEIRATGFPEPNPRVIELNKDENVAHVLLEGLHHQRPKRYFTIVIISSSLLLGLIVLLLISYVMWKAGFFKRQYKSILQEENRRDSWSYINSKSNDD
Sequence of α4β1 integrin (P05556 21-798): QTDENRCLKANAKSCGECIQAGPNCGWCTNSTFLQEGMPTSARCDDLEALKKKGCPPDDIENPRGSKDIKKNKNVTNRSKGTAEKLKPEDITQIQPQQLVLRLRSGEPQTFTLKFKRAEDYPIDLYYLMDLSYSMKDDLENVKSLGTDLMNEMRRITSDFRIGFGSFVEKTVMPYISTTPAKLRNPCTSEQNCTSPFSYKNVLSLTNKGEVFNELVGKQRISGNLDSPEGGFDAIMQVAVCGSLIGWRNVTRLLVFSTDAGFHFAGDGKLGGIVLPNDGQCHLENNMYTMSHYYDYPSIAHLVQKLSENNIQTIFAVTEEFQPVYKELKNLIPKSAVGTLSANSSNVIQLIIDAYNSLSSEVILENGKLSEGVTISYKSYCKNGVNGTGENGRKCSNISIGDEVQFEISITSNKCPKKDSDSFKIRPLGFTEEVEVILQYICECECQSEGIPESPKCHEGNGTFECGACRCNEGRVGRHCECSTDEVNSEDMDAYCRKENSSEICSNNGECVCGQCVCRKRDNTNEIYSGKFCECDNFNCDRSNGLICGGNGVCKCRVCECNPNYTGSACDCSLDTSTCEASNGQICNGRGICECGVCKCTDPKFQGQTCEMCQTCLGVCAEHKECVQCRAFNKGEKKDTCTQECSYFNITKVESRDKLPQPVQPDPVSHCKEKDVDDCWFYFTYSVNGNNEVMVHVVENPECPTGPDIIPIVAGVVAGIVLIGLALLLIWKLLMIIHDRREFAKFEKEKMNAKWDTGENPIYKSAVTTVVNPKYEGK

| SMILES | IC50 [nM] |
| --- | --- |
| COc1ccc(CN2CCC(C(F)(F)F)CC2)cc1-c1cccc2c(C[C@H](NC(=O)C3(C(F)(F)F)CCN(CC(F)F)CC3)C(=O)O)cccc12 [Compound 939] | 100 to 1000 |
| CC[C@@H]1CCCCN1Cc1cnc(-c2cccc3c(C[C@H](NC(=O)C4(C(F)(F)F)CCN(CC(F)F)CC4)C(=O)O)cccc23)c2ccccc12 [Compound 932] | 100 to 1000 |
| COc1c(-c2cccc3c(C[C@H](NC(=O)C4(C(F)(F)F)CCN(CC(F)(F)F)CC4)C(=O)O)cccc23)ccc2ccccc12 [Compound 776] | > 1000 |
| Cn1c(=O)c(-c2cccc3c(C[C@H](NC(=O)c4c(F)cccc4F)C(=O)O)cccc23)c(C(F)(F)F)c2cc(CCN3CC(F)C3)ccc21 [Compound 715] | > 1000 |
| O=C(O)[C@H](Cc1cccc2c(-c3cccc4cnoc34)cccc12)NC(=O)C1(C(F)(F)F)CCN(CC(F)(F)F)CC1 [Compound 772] | > 1000 |
| CN(Cc1cnc(-c2cccc3c(C[C@H](NC(=O)C4(C(F)(F)F)CCN(CC(F)F)CC4)C(=O)O)cccc23)c2ccccc12)CC(F)(F)F [Compound 923] | > 1000 |
| Cc1cccc(F)c1C(=O)N[C@@H](Cc1cccc2c(-c3ncc(CN4CCC(F)(F)CC4)c4ccccc34)cccc12)C(=O)O [Compound 1031] | > 1000 |
| O=C(O)[C@H](Cc1cccc2c(-c3cccc4ocnc34)cccc12)NC(=O)C1(C(F)(F)F)CCN(CC(F)(F)F)CC1 [Compound 770] | > 1000 |
| Cc1cccc(F)c1C(=O)N[C@@H](Cc1cccc2c(-c3c(C(F)(F)F)c4cc(CN5CCC(F)(F)CC5)ccc4n(C)c3=O)cccc12)C(=O)O [Compound 1032] | > 1000 |
| COc1cc2ccccc2cc1-c1cccc2c(C[C@H](NC(=O)C3(C(F)(F)F)CCN(CC(F)(F)F)CC3)C(=O)O)cccc12 [Compound 775] | > 1000 |
| COc1cccc(CN2CCCCC2)c1-c1cccc2c(C[C@H](NC(=O)c3c(F)cccc3-c3ccccc3)C(=O)O)cccc12 [Compound 693] | > 1000 |
| O=C(O)[C@H](Cc1cccc2c(-c3c(CN4CCCCC4)ccc4cccnc34)cccc12)NC(=O)C1(C(F)(F)F)CCN(CC(F)(F)F)CC1 [Compound 767] | > 1000 |
| O=C(O)[C@H](Cc1cccc2c(-c3cccc4ncoc34)cccc12)NC(=O)C1(C(F)(F)F)CCN(CC(F)(F)F)CC1 [Compound 771] | > 1000 |
| COc1ccc(CCN2CCCC(F)C2)c(OC)c1-c1cccc2c(C[C@H](NC(=O)C3(C(F)(F)F)CCN(CC(F)(F)F)CC3)C(=O)O)cccc12 (stereo partly drawn) [Compound 826] | 100 to 1000 |
| CN(Cc1cnc(-c2cccc3c(C[C@H](NC(=O)C4(C(F)(F)F)CCN(CC(F)(F)F)CC4)C(=O)O)cccc23)c2ccccc12)CC(F)(F)F [Compound 895] | > 1000 |
| Cc1cccc(F)c1C(=O)N[C@@H](Cc1cccc2c(-c3ccccc3OCCN3CCCCC3)cccc12)C(=O)O [Compound 1007] | > 1000 |
| COc1c(-c2cccc3c(C[C@H](NC(=O)C4(C(F)(F)F)CCN(CC(F)(F)F)CC4)C(=O)O)cccc23)cc(CN2CCCCC2)cc1C(F)(F)F [Compound 769] | > 1000 |

same assay, conditions: RPMI-8866 cells with stable LOF mutation of the ITGB7 gene; read-out: Mean IC50 α4β1 KO^b

| SMILES | IC50 [nM] |
| --- | --- |
| CN(C)Cc1cccc2c(-c3cccc4c(C[C@H](NC(=O)c5c(F)cc(N6CCOC[C@@H]6C(F)(F)F)cc5CN5CCC(N(C)C)CC5)C(=O)O)cccc34)nccc12 [Compound 434] | > 1000 |
| Cn1c(=O)c(-c2cccc3c(C[C@H](NC(=O)C4(C(F)(F)F)CCN([C@H]5CCOC5)CC4)C(=O)O)cccc23)c(C(F)(F)F)c2ccccc21 [Compound 458] | 100 to 1000 |

target: α4β7 integrin (Homo sapiens (Human), UniProt P13612+P26010); assay: Integrin Adhesion Assay: Protocol 4 (MAdCAM-coated plate, RPMI-8866 cells with stable LOF mutation of the ITGB1 gene); assay type: cell-based; conditions: Protocol 4; RPMI-8866 cells with LOF mutation of ITGB1, MAdCAM; read-out: Mean IC50 α4β7 KO
Sequence (P13612 34-1032): as the sequence (P13612 34-1032) above
Sequence (P26010 20-798): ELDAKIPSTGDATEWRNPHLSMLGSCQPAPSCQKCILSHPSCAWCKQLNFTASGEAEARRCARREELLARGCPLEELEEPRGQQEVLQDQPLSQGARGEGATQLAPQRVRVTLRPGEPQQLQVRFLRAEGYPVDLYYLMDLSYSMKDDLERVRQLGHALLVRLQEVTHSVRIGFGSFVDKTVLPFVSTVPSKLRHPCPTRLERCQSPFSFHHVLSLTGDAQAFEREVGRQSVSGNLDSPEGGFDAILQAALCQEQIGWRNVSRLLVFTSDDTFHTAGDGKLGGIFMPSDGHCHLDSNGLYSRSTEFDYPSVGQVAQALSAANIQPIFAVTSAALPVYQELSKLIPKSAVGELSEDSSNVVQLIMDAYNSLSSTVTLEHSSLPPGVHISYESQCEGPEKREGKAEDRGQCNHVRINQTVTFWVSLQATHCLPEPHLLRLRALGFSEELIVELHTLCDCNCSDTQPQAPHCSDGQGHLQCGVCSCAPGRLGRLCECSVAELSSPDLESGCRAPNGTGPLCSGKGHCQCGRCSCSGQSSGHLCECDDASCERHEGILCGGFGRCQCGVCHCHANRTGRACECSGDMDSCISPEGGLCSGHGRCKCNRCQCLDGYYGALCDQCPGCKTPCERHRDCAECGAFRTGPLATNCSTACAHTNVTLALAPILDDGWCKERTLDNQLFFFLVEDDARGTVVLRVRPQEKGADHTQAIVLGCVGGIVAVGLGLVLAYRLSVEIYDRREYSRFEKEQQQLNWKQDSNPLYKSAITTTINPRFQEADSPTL
Method: as §1, §2, §3, §4, §5, §6
Integrin Adhesion Assay: Protocol 4
MAdCAM (R&D Systems, 0.1 ug) was diluted in 50 μL PBS, added to each well of an opaque ELISA plate (Thermo), and incubated overnight at 4° C. Coated plates were washed once with PBS and then blocked with 200 μL of assay buffer (10 mM HEPES, 150 mM NaCl, 1 mM MnCl2, 0.1 mM CaCl2), 1% BSA) for 1 hour at 37° C. and 5% CO2. After incubation, buffer was aspirated from the plates and 50 μL of fresh assay buffer was added. Compounds were added using a compounds dispenser (Tecan), and DMSO concentration was normalized to 1% across each plate. 50 μL of RPMI-8866 cells with a stable loss of function (LOF) mutation of the ITGB1 gene (2×10^6 per mL) were added to each well and the plates were incubated for 1 hour at 37° C. at a CO2 concentration of 5%. After incubation, plates were allowed to cool to RT for 10 minutes before being washed four times in assay buffer by an automated plate washer (BioTek). After washing, 100 μL of a 1:1 mixture of assay buffer and CellTiter GLO 2.0 reagent (Promega) were added to each well. Plates were mixed for 2 minutes at 1000 rpm and then allowed to incubate an additional 10 minutes before reading out luminescence on a Tecan Spark plate reader. […]

| SMILES | IC50 [nM] |
| --- | --- |
| Cn1c(=O)c(-c2cccc3c(C[C@H](NC(=O)C4(C)C5CC4CN(CC(F)(F)F)C5)C(=O)O)cccc23)c(C(F)(F)F)c2ccccc21 (stereo partly drawn) [Compound 1048] | 100 to 1000 |
| O=C(O)[C@H](Cc1cccc2c(-c3ncc(CN4CCC(F)(F)CC4)c4ccccc34)cccc12)NC(=O)C1(C(F)(F)F)CCN(CC(F)F)CC1 [Compound 906] | < 10 |
| Cc1c(CN2CCCCC2)ccnc1-c1cccc2c(C[C@H](NC(=O)C3(C(F)(F)F)CCN(CC(F)(F)F)CC3)C(=O)O)cccc12 [Compound 747] | 10 to 100 |
| Cc1cc(C2CCCN(C)C2)cnc1-c1cccc2c(C[C@H](NC(=O)C3(C(F)(F)F)CCN(CC(F)(F)F)CC3)C(=O)O)cccc12 (stereo partly drawn) [Compound 760] | < 10 |
| Cc1cccc(F)c1C(=O)N[C@@H](Cc1cccc2c(-c3cc(CN4CCCCC4)ccc3C(F)(F)F)cccc12)C(=O)O [Compound 689] | 10 to 100 |
| COc1cc2c(c(C(F)(F)F)c1-c1cccc3c(C[C@H](NC(=O)C4(C(F)(F)F)CCN(CC(F)(F)F)CC4)C(=O)O)cccc13)CN(C)CC2 [Compound 736] | < 10 |
| O=C(O)[C@H](Cc1cccc2c(-c3ncc(CN4CCCCC4)cc3C(F)(F)F)cccc12)NC(=O)C1(C(F)(F)F)CCN(CC(F)F)CC1 [Compound 897] | < 10 |
| O=C(O)[C@H](Cc1cccc2c(-c3nccc4ccc(CCCN5CC6(CCC6)C5)cc34)cccc12)NC(=O)C1(C(F)(F)F)CCN(CC(F)(F)F)CC1 [Compound 745] | < 10 |
| COC1CN(Cc2cnc(-c3cccc4c(C[C@H](NC(=O)C5(C(F)(F)F)CCN(CC(F)F)CC5)C(=O)O)cccc34)c3ccccc23)C1 [Compound 913] | < 10 |
| COc1cc(CN2CCC(C(F)(F)F)CC2)cnc1-c1cccc2c(C[C@H](NC(=O)C3(C(F)(F)F)CCN(CC(F)(F)F)CC3)C(=O)O)cccc12 [Compound 889] | < 10 |
| COc1c(CN2CCCCC2)ccc(C(F)(F)F)c1-c1cccc2c(C[C@H](NC(=O)c3c(C)cccc3F)C(=O)O)cccc12 [Compound 1022] | 10 to 100 |
| O=C(O)[C@H](Cc1cccc2c(-c3ncc(CN4CC(F)C4)c4ccccc34)cccc12)NC(=O)C1(C(F)(F)F)CCN(CC(F)F)CC1 [Compound 877] | < 10 |

same assay, conditions: RPMI-8866 cells with stable LOF mutation of the ITGB1 gene; read-out: Mean IC50 α4β7 KO^a

| SMILES | IC50 [nM] |
| --- | --- |
| Cn1c(=O)c(-c2cccc3c(C[C@H](NC(=O)C45CC(NCC(F)(F)F)(C4)C5)C(=O)O)cccc23)c(C(F)(F)F)c2ccccc21 [Compound 446] | > 1000 |
| CCCS(=O)(=O)N1CCC(C(=O)N[C@@H](Cc2cccc3c(-c4c(OC)ccc(CN5CCC(F)(F)CC5)c4OC)cccc23)C(=O)O)(C(F)(F)F)CC1 [Compound 617] | 100 to 1000 |
